From patent US20260250318A1, “COMPOSITIONS AND METHODS FOR CROSSING THE BLOOD BRAIN BARRIER” (VOYAGER THERAPEUTICS, INC., priority 2022, published 2026)

System: brains, heart, liver, muscle, and DRG of the NHPs
Test: Maturation of TTM-001 and TTM-002 capsids, NGS enrichment in NHP tissues
Assay type: in vivo
Description: This Example describes maturation of the AAV9 capsid variants, TTM-001 (SEQ ID NO: 981 (amino acid) and 983 (DNA), comprising SEQ ID NO: 941 (encoded by SEQ ID NO: 942)) and TTM-002 (SEQ ID NO: 982 (amino acid) and 984 (DNA), comprising SEQ ID NO: […] (encoded by SEQ ID NO: 944)) in NHPs to further enhance their transduction and biodistribution in the central nervous system as well as other tissues, and evolve the AAV capsid variants to provide further cross-species compatibility. Two approaches were used to mature the TTM-001 and TTM-002 capsid sequences in order to randomize and mutate within and around the peptide insert comprised within loop IV of the capsid variant. […] In the first maturation approach, sets of three contiguous amino acids were randomized across the mutagenesis region in the TTM-001 and TTM-002 sequences, which spanned from position 450 to position 466, numbered according to SEQ ID NO: 981 and 982. In the second maturation approach, mutagenic primers were used to introduce point mutations at a low frequency, scattered across the mutagenesis region in the TTM-001 and TTM-002 sequences ranging from position 449 to position 466, numbered according to SEQ ID NO: 981 and 982. AAV capsid variants arising from each maturation approach for TTM-001 and TTM-002 were pooled together, for subsequent testing and characterization in NHPs.
The library of pooled matured AAV capsid variants generated using the first maturation approach and the second maturation approach for the TTM-001 and TTM-002 AAV capsid variants were injected into two NHPs. […] Following RNA recovery and RT-PCR amplification, a systematic NGS enrichment analysis was performed to calculate the fold enrichment ratio relative to an AAV9 control, and the peptides comprised within the variants were identified.
Following the RNA recovery and NGS analysis from the second maturation approach, approximately 680,000 capsid variants were identified. The 680,000 matured capsid variants were then filtered based on samples with a raw virus count greater than 10 and a coefficient of variance (CV) of less than 1, which was calculated for each peptide across the brain samples taken from the two NHPs. […] Using this filtering criteria, this led to approximately 64,000 matured capsid variants.

[1] = NHP DRG, NGS, relative to AAV9 control
[2] = NHP brain, NGS, relative to AAV9 control
[3] = NHP heart, NGS, relative to AAV9 control
[4] = NHP liver DNA, NGS, relative to AAV9 control
[5] = NHP liver RNA, NGS, TTM-001 and TTM-002 matured AAV capsid variants, relative to AAV9 control
[6] = NHP muscle, NGS, relative to AAV9 control

Sequence	Fold Enrichment relative to AAV9, DRG (NHP) [1] [fold]	Fold Enrichment relative to AAV9, Brain (NHP) [2] [fold]	Fold Enrichment relative to AAV9, Heart (NHP) [3] [fold]	Fold Enrichment relative to AAV9, Liver DNA (NHP) [4] [fold]	Fold Enrichment relative to AAV9, Liver RNA (NHP) [5] [fold]	Fold Enrichment relative to AAV9, Muscle (NHP) [6] [fold]	Fold Enrichment relative to AAV9, DRG (NHP) (NGS fold-enrichment, DRG, NHP, relative to AAV9) [fold]	Fold Enrichment relative to AAV9, Brain (NHP) (NGS fold-enrichment, brain, NHP, relative to AAV9) [fold]	Fold Enrichment relative to AAV9, Heart (NHP) (NGS fold-enrichment, heart, NHP, relative to AAV9) [fold]	Fold Enrichment relative to AAV9, Liver DNA (NHP) (NGS fold-enrichment, liver DNA, NHP, relative to AAV9) [fold]	Fold Enrichment relative to AAV9, Liver RNA (NHP) (NGS fold-enrichment, liver RNA, NHP, relative to AAV9) [fold]	Fold Enrichment relative to AAV9, Muscle (NHP) (NGS fold-enrichment, muscle, NHP, relative to AAV9) [fold]
KTINGSGSPHSKCSVQQT	0.000	0.000	0.000	1.465	12.246	0.000						
KTINGSGSPHSKCTSQQT							0.232	0.493	1.413	5.821	10.311	2.353
KTINGSGSPHSKFFIQQT	0.000	0.000	0.000	6.916	63.255	0.000						
KTINGSGSPHSKFKNQQT	0.000	0.000	0.000	1.074	21.951	0.000						
KTINGSGSPHSKFRQQQT	0.000	0.000	0.000	3.260	38.665	0.000						
KTINGSGSPHSKGCTQQT	0.000	0.000	0.000	0.529	26.068	0.000						
KTINGSGSPHSKIRGQQT	0.000	0.000	0.000	1.584	18.150	0.000						
KTINGSGSPHSKIRRQQT	0.000	0.000	0.000	1.388	53.528	0.000						
KTINGSGSPHSKKTSQQT	0.000	0.000	0.000	1.344	15.244	0.000						
KTINGSGSPHSKKVFQQT	0.000	0.000	0.000	4.480	43.747	0.000						
KTINGSGSPHSKLCTQQT	0.000	0.000	0.000	1.269	18.674	0.000						
KTINGSGSPHSKLFWQQT	0.000	0.000	0.000	4.178	37.022	0.000						
KTINGSGSPHSKLKRQQT	0.000	0.000	0.000	6.884	76.103	0.000						
KTINGSGSPHSKLPKQQT	0.000	0.000	0.000	0.274	11.856	0.000						
KTINGSGSPHSKMICQQT	0.000	0.000	0.000	0.144	21.036	0.000						
KTINGSGSPHSKMPCQQT	0.000	0.000	0.000	1.063	15.343	0.000						
KTINGSGSPHSKNSRQQT	0.000	0.000	0.000	1.093	11.280	0.000						
KTINGSGSPHSKPFRQQT	0.000	0.000	0.000	8.700	29.842	0.000						
KTINGSGSPHSKPKRQQT	0.000	0.000	0.000	2.832	52.881	0.000						
KTINGSGSPHSKQRPQQT	0.000	0.000	0.000	2.347	11.130	0.000						
KTINGSGSPHSKRHRQQT	0.000	0.000	0.000	4.648	73.225	0.000						
KTINGSGSPHSKRKRQQT	0.000	0.000	0.000	3.027	11.215	0.000						
KTINGSGSPHSKRNYQQT	0.000	0.000	0.000	5.528	12.781	0.000						
KTINGSGSPHSKRRAQQT	0.000	0.000	0.000	5.906	26.523	0.000						
KTINGSGSPHSKRSYQQT	0.000	0.000	0.000	2.116	28.973	0.000						
